# Values quoted from earlier work, collected in US20220079880A1, “SOLID MICELLAR COMPOSITIONS OF CANNABINOID ACIDS” (priority 2019, published 2022).
# Where two headings read alike, the source gives them in different places.
# What was measured:
# [1] = molecular target: T1, PPARγ (Homo sapiens, UniProt P37231)
# T1 sequence (P37231 1-505): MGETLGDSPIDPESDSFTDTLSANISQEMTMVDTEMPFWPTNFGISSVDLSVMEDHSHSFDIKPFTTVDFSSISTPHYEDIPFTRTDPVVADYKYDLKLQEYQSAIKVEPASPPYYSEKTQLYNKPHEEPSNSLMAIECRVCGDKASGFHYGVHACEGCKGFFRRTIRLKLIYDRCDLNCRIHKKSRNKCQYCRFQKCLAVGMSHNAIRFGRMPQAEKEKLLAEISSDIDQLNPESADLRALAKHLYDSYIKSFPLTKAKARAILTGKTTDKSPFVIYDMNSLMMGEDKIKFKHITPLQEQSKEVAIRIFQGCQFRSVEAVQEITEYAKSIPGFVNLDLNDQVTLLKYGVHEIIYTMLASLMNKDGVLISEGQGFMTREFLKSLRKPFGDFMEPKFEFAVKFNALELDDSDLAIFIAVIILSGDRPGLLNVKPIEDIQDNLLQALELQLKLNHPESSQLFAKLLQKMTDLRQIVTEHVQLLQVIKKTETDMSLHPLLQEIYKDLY
# [2] = tested on: prostate cancer cells; details: animal studies
# [3] = molecular target: T2, COX-2 (Homo sapiens, UniProt P35354)
# T2 sequence (P35354 18-604): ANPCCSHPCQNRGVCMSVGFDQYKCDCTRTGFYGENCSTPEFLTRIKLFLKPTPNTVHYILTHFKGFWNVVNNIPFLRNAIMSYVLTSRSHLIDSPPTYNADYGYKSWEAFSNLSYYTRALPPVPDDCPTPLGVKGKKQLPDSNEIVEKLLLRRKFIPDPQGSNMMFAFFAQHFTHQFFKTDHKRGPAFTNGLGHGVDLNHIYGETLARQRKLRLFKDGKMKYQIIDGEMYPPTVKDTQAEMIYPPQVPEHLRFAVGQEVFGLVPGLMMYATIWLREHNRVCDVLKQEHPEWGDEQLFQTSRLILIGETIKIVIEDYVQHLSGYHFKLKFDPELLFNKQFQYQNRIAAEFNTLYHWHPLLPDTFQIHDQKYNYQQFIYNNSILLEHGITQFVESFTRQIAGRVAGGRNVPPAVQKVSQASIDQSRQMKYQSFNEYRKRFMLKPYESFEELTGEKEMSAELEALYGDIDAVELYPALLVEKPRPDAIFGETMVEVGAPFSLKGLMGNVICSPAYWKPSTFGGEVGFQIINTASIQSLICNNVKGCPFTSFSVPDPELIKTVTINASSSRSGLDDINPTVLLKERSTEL
# [4] = molecular target: COX-1 (Homo sapiens, UniProt P23219)
# [5] = receptor affinity and effect; purportedly
# [6] = molecular target: T3, 5-HT1A receptors (Homo sapiens, UniProt P08908)
# T3 sequence (P08908 1-422): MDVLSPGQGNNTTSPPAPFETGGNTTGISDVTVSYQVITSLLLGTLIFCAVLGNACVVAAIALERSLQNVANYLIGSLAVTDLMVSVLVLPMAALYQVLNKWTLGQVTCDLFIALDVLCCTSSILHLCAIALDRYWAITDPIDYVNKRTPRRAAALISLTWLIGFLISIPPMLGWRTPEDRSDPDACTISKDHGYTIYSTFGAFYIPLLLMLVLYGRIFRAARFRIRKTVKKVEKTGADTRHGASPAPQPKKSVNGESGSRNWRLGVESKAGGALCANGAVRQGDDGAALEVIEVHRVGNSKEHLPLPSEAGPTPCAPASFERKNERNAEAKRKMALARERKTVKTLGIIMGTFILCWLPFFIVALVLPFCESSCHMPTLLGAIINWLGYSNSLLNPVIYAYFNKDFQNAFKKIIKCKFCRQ
# [7] = molecular target: TRPA1 (Homo sapiens, UniProt O75762)
# [8] = molecular target: TRPV1′ (Homo sapiens, UniProt Q8NER1)
# [9] = molecular target: TRPM8 (Homo sapiens, UniProt Q7Z2W7)
# [10] = tested on: experimentally induced nausea; details: rats; 5HT1A receptor-mediated
# [11] = tested on: MDA-MB-231 human breast cancer cells
# [12] = molecular target: GPR-55 (Homo sapiens, UniProt Q9Y2T6)
# [13] = tested on: MBS model of epilepsy; details: mice
# [14] = tested on: MBS model of epilepsy; details: rats
# [15] = tested on: seizures; details: response = reduced seizure frequency of greater than 50%; surveys
# [16] = nano-size lipid-based systems
# Chain of GPR-55 (Q9Y2T6 whole entry, species assumed): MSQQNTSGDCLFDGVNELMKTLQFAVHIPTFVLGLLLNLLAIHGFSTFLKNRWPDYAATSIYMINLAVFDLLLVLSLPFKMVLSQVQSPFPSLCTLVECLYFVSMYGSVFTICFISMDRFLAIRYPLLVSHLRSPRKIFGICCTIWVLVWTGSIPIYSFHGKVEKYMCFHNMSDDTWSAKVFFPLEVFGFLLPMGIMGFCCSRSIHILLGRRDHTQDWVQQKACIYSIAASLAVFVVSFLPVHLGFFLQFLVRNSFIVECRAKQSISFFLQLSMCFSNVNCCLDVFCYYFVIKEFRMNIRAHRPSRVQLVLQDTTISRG
# Chain of TRPA1 (O75762 whole entry, species assumed): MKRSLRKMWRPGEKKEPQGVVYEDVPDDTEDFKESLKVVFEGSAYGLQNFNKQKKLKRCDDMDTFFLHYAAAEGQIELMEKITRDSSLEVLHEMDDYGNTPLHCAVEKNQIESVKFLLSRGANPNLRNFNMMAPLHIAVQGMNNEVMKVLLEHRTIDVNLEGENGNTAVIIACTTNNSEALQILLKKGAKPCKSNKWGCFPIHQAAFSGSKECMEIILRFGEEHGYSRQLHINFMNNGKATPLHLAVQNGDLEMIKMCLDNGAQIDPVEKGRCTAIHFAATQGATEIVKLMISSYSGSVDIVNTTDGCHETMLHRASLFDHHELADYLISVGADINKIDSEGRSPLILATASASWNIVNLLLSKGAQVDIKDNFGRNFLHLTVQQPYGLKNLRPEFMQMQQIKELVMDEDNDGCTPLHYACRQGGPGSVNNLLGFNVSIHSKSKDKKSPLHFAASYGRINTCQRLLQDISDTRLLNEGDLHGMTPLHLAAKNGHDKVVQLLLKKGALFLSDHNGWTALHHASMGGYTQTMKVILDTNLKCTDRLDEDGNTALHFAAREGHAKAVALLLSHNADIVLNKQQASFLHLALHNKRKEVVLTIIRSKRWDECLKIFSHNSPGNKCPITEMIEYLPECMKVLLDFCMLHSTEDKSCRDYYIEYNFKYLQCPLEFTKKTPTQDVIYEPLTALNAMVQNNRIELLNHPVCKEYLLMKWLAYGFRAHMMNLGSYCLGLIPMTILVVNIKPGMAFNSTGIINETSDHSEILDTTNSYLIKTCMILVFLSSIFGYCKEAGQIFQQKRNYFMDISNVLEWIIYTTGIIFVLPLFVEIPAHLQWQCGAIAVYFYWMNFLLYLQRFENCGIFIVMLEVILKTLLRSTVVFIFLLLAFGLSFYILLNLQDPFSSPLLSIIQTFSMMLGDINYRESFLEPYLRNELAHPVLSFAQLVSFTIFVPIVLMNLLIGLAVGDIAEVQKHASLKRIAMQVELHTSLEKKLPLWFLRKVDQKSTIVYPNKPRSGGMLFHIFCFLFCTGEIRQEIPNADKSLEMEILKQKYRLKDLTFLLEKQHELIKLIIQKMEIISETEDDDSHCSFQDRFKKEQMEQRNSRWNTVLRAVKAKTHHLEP
# Chain of TRPV1′ (Q8NER1 whole entry, species assumed): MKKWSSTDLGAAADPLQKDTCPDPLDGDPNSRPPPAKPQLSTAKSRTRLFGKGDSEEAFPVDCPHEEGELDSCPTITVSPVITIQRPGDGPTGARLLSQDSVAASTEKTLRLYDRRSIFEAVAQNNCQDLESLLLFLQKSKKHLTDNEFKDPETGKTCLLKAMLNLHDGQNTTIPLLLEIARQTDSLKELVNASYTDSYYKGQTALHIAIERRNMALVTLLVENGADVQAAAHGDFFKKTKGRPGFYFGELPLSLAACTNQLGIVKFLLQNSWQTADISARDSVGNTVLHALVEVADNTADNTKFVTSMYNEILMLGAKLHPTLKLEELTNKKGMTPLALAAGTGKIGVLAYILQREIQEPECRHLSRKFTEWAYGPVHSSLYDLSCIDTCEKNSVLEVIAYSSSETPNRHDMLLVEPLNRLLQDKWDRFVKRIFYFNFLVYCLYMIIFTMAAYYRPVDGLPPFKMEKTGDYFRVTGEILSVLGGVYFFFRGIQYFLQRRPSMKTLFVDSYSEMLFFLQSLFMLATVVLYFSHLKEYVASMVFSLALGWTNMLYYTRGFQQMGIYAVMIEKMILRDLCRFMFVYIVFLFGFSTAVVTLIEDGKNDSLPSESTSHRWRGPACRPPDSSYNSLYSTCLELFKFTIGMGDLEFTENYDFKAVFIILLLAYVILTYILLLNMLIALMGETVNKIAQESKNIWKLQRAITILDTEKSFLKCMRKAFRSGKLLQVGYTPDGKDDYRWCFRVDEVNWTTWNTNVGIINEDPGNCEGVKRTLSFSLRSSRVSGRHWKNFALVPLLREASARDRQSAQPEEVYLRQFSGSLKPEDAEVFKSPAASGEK
# Chain of COX-1 (P23219 24-599): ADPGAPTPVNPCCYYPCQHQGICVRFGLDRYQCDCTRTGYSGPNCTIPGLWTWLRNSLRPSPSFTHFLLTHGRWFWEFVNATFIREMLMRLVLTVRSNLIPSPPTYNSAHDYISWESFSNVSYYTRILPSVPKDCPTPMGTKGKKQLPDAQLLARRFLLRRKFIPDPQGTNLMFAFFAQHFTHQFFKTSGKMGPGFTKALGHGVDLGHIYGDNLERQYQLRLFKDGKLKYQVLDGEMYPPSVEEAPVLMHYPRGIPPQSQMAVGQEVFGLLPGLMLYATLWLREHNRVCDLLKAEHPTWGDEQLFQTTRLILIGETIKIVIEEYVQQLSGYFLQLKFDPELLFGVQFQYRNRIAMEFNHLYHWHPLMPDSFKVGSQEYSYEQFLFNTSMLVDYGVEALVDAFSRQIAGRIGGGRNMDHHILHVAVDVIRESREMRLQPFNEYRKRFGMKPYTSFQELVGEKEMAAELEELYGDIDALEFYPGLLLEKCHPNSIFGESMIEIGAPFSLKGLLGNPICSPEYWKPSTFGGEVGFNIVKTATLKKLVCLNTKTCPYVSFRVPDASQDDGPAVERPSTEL
# Chain of TRPM8 (Q7Z2W7 whole entry, species assumed): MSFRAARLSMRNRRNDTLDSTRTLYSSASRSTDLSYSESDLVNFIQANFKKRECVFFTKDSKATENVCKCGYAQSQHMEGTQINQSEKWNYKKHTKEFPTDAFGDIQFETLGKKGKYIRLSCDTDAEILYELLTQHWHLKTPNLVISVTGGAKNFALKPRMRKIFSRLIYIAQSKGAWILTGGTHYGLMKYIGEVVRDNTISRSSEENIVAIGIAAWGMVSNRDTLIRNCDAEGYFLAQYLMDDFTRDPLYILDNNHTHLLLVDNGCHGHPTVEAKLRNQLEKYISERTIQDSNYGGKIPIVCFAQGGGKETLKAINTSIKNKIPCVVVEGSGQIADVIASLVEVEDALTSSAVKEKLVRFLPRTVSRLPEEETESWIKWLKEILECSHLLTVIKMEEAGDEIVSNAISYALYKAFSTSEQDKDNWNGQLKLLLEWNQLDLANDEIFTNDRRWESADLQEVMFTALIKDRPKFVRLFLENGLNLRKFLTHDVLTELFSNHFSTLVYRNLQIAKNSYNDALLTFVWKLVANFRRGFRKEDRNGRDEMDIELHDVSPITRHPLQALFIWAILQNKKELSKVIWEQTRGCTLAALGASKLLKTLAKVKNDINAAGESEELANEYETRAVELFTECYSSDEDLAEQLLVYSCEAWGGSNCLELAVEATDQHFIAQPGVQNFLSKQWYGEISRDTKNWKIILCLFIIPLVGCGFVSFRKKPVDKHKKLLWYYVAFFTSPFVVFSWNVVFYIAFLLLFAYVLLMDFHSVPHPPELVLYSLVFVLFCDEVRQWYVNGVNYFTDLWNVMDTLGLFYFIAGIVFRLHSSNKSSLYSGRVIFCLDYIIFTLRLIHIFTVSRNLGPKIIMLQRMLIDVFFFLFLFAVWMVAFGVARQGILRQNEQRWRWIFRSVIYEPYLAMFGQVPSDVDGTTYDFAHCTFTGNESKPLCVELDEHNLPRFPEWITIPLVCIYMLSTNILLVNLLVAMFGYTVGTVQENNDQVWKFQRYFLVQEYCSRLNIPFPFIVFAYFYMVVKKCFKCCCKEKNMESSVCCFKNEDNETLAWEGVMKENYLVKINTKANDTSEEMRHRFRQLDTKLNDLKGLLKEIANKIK
smiles,measurement,setting,value
"CCCCCc1cc2c(c(O)c1C(=O)O)[C@@H]1C=C(C)CC[C@H]1C(C)(C)O2 [THCa, tetrahydrocannabinolic acid]",PPARγ binding compared with the corresponding neutral cannabinoid,[1],outperform
same,effect on spread of prostate cancer cells,[2],limit the spread
"C=C(C)[C@@H]1CCC(C)=C[C@H]1c1c(O)cc(CCCCC)c(C(=O)O)c1O [CBDa, cannabidiolic acid]",concentration that inhibited COX-2,[3],~2 µM
same,"COX-1 inhibition, in words",[4],does not inhibit
same,potency relative to CBD,[5],1000-4000 ×
same,affinity for 5-HT1A receptors over CBD,[6],100 fold
same,PPARγ binding compared with the corresponding neutral cannabinoid,[1],outperform
same,activity at TRPA1,[7],agonist
same,activity at TRPV1′,[8],agonist
same,activity at TRPM8,[9],agonist
same,effect on experimentally induced nausea,[10],suppressed
same,effect on migration of MDA-MB-231 cells,[11],inhibit migration
same,effect on GPR-55,[12],inhibitory effects
"CCCCCc1cc(O)c(C/C=C(\C)CCC=C(C)C)c(O)c1C(=O)O [CBGa, cannabigerolic acid]",PPARγ binding compared with the corresponding neutral cannabinoid,[1],outperform
"C=C(C)[C@@H]1CCC(C)=C[C@H]1c1c(O)cc(CCCCC)cc1O [CBD, cannabidiol]",ED50 for the MBS model of epilepsy,[13],85 mg/kg
same,ED50 for the MBS model of epilepsy,[14],89 mg/kg
same,response rate,[15],~47%
same,"COX-2 inhibition, in words",[3]; compared with CBDa,not nearly as active
same,improvement in BA,[16],10 ×
